From patent publication US10568854B2, “Compositions and methods for treating kabuki syndrome and related disorders” (THE JOHNS HOPKINS UNIVERSITY, priority 2014, dated 2020)
“Also recorded” adds a separate entry of the source.

Assays:
[1] = system: H3K4 trimethylation activity in Kmt2d^+/βGeo and Kmt2d^+/+ MEFs; test: H3K4me3 indicator in murine embryonic fibroblasts (MEFs); type: cell-based, mouse
Excerpt: An H3K4 trimethylation reporter was also created. This reporter is based on the H3 tail on one end and the TBP associated factor III (TAFIII) homeodomain on the other end; the TAFIII homeodomain only identifies and binds to trimethylated K4 on H3. When the H3K4 site gets trimethylated, the TAFIII homeodomain can bind to the modified H3 tail and bring the two parts of the separated GFP in close proximity. The activity of the epigenetic modification system can be quantified through fluorescence.
Epigenetic reporter alleles: Epigenetic reporter alleles were synthesized (OriGene, Rockville, Md.) using published sequences for component elements (Baird et al. (1999) Proc. Nail. Acad. Sci. 96:11241-6; Souslova et al. (2007) BMC Biotechnol. 7:37). Single nucleotide mutations were created using the QuickChange Lightening kit (Agilent Technologies Inc, Santa Clara, Calif.). For H4ac indicator, K5R, K8R, K12R, K16R and K20R (MUT indicator) were introduced. For H3K4me3 indicator, K4Q and D890A/W891A and M882A (three separate constructs) were introduced. For transient transfections, mouse embryonic fibroblasts (see below) were transfected with Fugene HD (Promega, Madison, Wis.), 48 hours prior to FACS. […] For drug stimulation, drug was added to the media 24 hours prior to FACS. For stable transfections in T293 (American Type Culture Collection) cells, 10 μg/ml of Blastocidin (Life Technologies, Carlsbad, Calif.) was added to the media for several weeks. For stable transfection in MEFs, the reporter was transferred to a ViraPower Lentiviral Expression System (Life Technologies, Carlsbad, Calif.). After selection with Blastocidin, the drug of interest was added 24 hours prior to FACS. SAHA, AR-42 and MS275 were purchased from Selleck (Selleck Chemicals, Houston, Tex.). […] FACS data were analyzed using FlowJo (Tree Star Inc, Ashland, Oreg.). A plasmid expressing HDAC3 was acquired from Addgene (Cambridge, Mass., plasmid 13819) and transfected into a stable cell line carrying the H4 acetyl reporter allele.

[2] = system: H3K4 trimethylation and histone acetylation; conditions: cited from earlier work
[3] = system: Kmt2d^+/βGeo mice (mouse model of Kabuki syndrome); test: Morris water maze (Example 1); type: in vivo; conditions: 10 mg/kg/day
Excerpt: Animals: Kmt2d^+/βGeo mice, also named Mll2Gt^(RRt024)Byg, were acquired from Bay Genomics (University of California). All experimental mice were on a mixed C57BL/6J and 129/SvEv background. Expected Mendelian ratios were observed when heterozygous animals were bred to wild-type. In heterozygous crosses, however, there was uniform embryonic lethality of homozygotes by ED12, the earliest developmental stage assayed. For treatment with AR-42 mice were orally gavaged daily with drug (Selleck Chemicals, Houston, Tex.) solubilized in vehicle (0.5% methylcellulose, 0.1% Tween-80, water) or with vehicle alone. Drug delivery information was kindly provided by Drs. […] For quantification of DCX positive cells, doses of 0, 5, 10 and 25 mg/kg/day were used. […] Maxillary protrusion was evaluated by ten investigators blinded to genotype and they were asked to rate maxillary protrusion on radiographs as either large (2) or small (1). […]
Morris water maze: Mice were placed in a 1.1 meter diameter tank filled with room temperature water dyed with non-toxic white paint. […] Latency to reach the platform was measured during each trial. […] Average number of crossings of the platform's previous location was recorded. […] For all training and probe testing, data was recorded both manually and electronically with ANY-maze software (San Diego Instruments, San Diego, Calif.) when applicable. […]

[4] = system: H3K4me3 indicator (H3K4 trimethylation machinery activity); test: H3K4me3 indicator reporter assay, FACS; type: cell-based; conditions: FIG. 17F
Excerpt: Design of the indicator constructs. A genetically encoded histone reporter allele system has been developed which can be used to monitor activity of any histone maintenance machinery component in live cells. Previously, FRET based epigenetic activity systems have been created (Lin and Ting (2004) Angew Chem Int Ed Engl. 24;43 (22):2940-3; Lin et al. (2004) J. Am. Chem. Soc. 19;126(19):5982-3; U.S. Pat. No. 7,056,683). However, FRET-based assays need a complex technological setup which is not widely available and FRET-based assays have been much more difficult to introduce into transgenic mouse models. […] The particular construct design is based on a circularly permutated green fluorescent protein (GFP) that lacks fluorescence unless the two parts of GFP are brought into close proximity by external forces (Baird et al. (1999) Proc. Natl. Acad. Sci. U.S.A. 28;96(20):11241-6). […]
An H3K4 trimethylation reporter was also created. […] The activity of the epigenetic modification system can be quantified through fluorescence.
Epigenetic reporter alleles: Epigenetic reporter alleles were synthesized (OriGene, Rockville, Md.) using published sequences for component elements (Baird et al. (1999) Proc. Nail. Acad. Sci. 96:11241-6; Souslova et al. (2007) BMC Biotechnol. 7:37). […] FACS data were analyzed using FlowJo (Tree Star Inc, Ashland, Oreg.). […]

CC(C)[C@H](C(=O)Nc1ccc(C(=O)NO)cc1)c1ccccc1 [AR-42, (S)—N-hydroxy-4-(3-methyl-2-phenylbutanamido)benzamide]
dose at which Kmt2d^+/βGeo MEFs achieve untreated wild-type levels of H3K4me3 indicator activity ([1]; Kmt2d^+/βGeo MEFs): 5 µM
H3K4 trimethylation activity ([1]; Kmt2d^+/βGeo cells treated with HDAC inhibitor): enhanced
H3K4me3 indicator activity in MEFs ([1]; both genotypes (Kmt2d^+/βGeo, Kmt2d^+/+)): dose-dependent response
relative effect on H3K4me3 ([2]; AR-42 versus MS275, Huang et al. (2011)): strongest effect on H3K4me3
effect on H3K4 trimethylation and histone acetylation ([2]; Huang et al. (2011)): increase H3K4 trimethylation and histone acetylation
frequency of platform crossing during probe trial [3]: improved performance for both genotypes; also recorded: normalized
escape latency during training, with versus without drug ([3]; Kmt2d^+/βGeo animals): No significant difference is observed
H3K4me3 indicator response to increasing levels of drug [4]: dose dependent response
cell numbers ([4]; higher doses): decreased cell numbers at higher doses
